Data on one molecule can be found in patent publication US20150065443A1, “EMBELIN-BASED DELIVERY SYSTEM FOR WATER-INSOLUBLE ACTIVE AGENTS” (priority 2012, published 2015).

The subject of this series is MDA-MB-231 cells. Kind of series: In vitro cytotoxicity, MTT assay. The conditions noted are these: various concentrations of PTX, 72 h. (In general: Tetrazolium assays rely on reduction of a dye to a coloured formazan, in cell work by metabolically active cells.)

Turning to `CC(=O)O[C@H]1C(=O)[C@@]2(C)[C@H]([C@H](OC(=O)c3ccccc3)[C@]3(O)C[C@H](OC(=O)[C@H](O)[C@@H](NC(=O)c4ccccc4)c4ccccc4)C(C)=C1C3(C)C)[C@]1(OC(C)=O)CO[C@@H]1C[C@@H]2O` [PTX, Paclitaxel], the Cytotoxicity result is reported as “exhibited cytotoxicity on MDA-MB-231 cells in a dose-dependent manner”.
